Results as given in patent US10092551B2, “Spiro-thiazolones” (Hoffmann-La Roche Inc., priority 2014, dated 2018).

target: human V1a receptor (Homo sapiens (Human), UniProt P37288); assay: human V1a receptor binding studies (3H-Vasopressin, SPA beads); settings: membranes of HEK293 cells transiently transfected with human V1a receptor, Ki by Cheng-Prussoff
In short: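 Membranes from HEK293 cells transiently expressing cloned human V1a receptor, bound on yttrium silicate SPA beads with 4 nM 3H-vasopressin (added stock) and serially diluted compound, 1 h at room temperature. Non-specific binding defined with cold vasopressin; IC50 by non-linear regression, Ki via Cheng-Prusoff.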

Sequence of human V1a receptor (P37288 whole entry): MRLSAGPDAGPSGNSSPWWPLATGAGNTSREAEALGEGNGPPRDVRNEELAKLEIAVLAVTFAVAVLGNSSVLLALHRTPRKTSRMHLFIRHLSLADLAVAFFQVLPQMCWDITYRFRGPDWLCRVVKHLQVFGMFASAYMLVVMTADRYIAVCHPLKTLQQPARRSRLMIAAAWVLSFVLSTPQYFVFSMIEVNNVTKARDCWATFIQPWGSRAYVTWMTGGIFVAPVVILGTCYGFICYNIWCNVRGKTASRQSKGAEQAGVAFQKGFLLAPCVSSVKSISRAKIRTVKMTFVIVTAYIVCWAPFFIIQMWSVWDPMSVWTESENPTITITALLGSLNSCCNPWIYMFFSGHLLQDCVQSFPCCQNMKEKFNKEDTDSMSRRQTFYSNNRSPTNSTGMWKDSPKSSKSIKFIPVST

pKi hV1a | SMILES
8.5 | O=C1N=C(N2CCC3(CC2)OC(=O)c2ccccc23)SC1=C(C1CC1)C1CC1 [Example 139, 1′-[5-(dicyclopropylmethylidene)-4-oxo-4,5-dihydro-1,3-thiazol-2-yl]-3H-spiro[2-benzofuran-1,4′-piperidin]-3-one]
7.9 | C/C(=C1\SC(N2CCC3(CC2)OCc2ccccc23)=NC1=O)C1CCCCC1 [Example 28, (5E)-5-(1-cyclohexylethylidene)-2-(1′H,3H-spiro[2-benzofuran-1,4′-piperidin]-1′-yl)-1,3-thiazol-4(5H)-one]
8.6 | CC/C(=C1/SC(N2CCC3(CC2)OCc2ccccc23)=NC1=O)c1cc(C)on1 [Example 64, (5E/Z)-5-[1-(5-methyl-1,2-oxazol-3-yl)propylidene]-2-(1′H,3H-spiro[2-benzofuran-1,4′-piperidin]-1′-yl)-1,3-thiazol-4(5H)-one]
8.9 | C/C(=C1/SC(N2CCC3(CC2)OCc2ccccc23)=NC1=O)c1ccccc1F [Example 40, (5E/Z)-5-[1-(2-fluorophenyl)ethylidene]-2-(1′H,3H-spiro[2-benzofuran-1,4′-piperidin]-1′-yl)-1,3-thiazol-4(5H)-one]
9.0 | C/C(=C1/SC(N2CCC3(CC2)OCc2cccnc23)=NC1=O)c1ccc(Cl)cc1 [Example 2, (5E/Z)-5-[1-(4-chlorophenyl)ethylidene]-2-(1′H,5H-spiro[furo[3,4-b]pyridine-7,4′-piperidin]-1′-yl)-1,3-thiazol-4(5H)-one]
7.5 | C/C(=C1/SC(N2CCC3(CC2)OCc2ncccc23)=NC1=O)c1cccnc1 [Example 165, (5E/Z)-5-[1-(pyridin-3-yl)ethylidene]-2-(1′H,7H-spiro[furo[3,4-b]pyridine-5,4′-piperidin]-1′-yl)-1,3-thiazol-4(5H)-one]
7.5 | O=C1N=C(N2CCC3(CC2)OCc2ccccc23)S/C1=C1/CCc2cc(O)ccc21 [Example 54, (5E/Z)-5-(5-hydroxy-2,3-dihydro-1H-inden-1-ylidene)-2-(1′H,3H-spiro[2-benzofuran-1,4′-piperidin]-1′-yl)-1,3-thiazol-4(5H)-one]
8.9 | C/C(=C1/SC(N2CCC3(CC2)OCc2ccccc23)=NC1=O)c1ccc(Cl)cc1 [Example 1, (5E/Z)-5-[1-(4-chlorophenyl)ethylidene]-2-(1′H,3H-spiro[2-benzofuran-1,4′-piperidin]-1′-yl)-1,3-thiazol-4(5H)-one]
8.4 | O=C1N=C(N2CCC3(CC2)OCc2ccccc23)S/C1=C\c1ccccc1 [Example 9, (5Z)-5-benzylidene-2-(1′H,3H-spiro[2-benzofuran-1,4′-piperidin]-1′-yl)-1,3-thiazol-4(5H)-one]
9.3 | [2H]C([2H])([2H])/C(=C1/SC(N2CCC3(CC2)OCc2ccccc23)=NC1=O)c1ccc(Cl)nc1 [Example 171, (5Z)-5-[1-(6-chloropyridin-3-yl)(^2H3)ethylidene]-2-(1′H,3H-spiro[2-benzofuran-1,4′-piperidin]-1′-yl)-1,3-thiazol-4(5H)-one]
7.3 | C/C(=C1/SC(N2CCC3(CC2)OCc2ccccc23)=NC1=O)c1cnc[nH]1 [Example 117, (5E/Z)-5-[1-(1H-imidazol-5-yl)ethylidene]-2-(1′H,3H-spiro[2-benzofuran-1,4′-piperidin]-1′-yl)-1,3-thiazol-4(5H)-one]
9.0 | C/C(=C1/SC(N2CCC3(CC2)OC(=O)c2ccccc23)=NC1=O)c1ccc(Cl)cc1 [Example 3, 1′-{(5E/Z)-5-[1-(4-chlorophenyl)ethylidene]-4-oxo-4,5-dihydro-1,3-thiazol-2-yl}-3H-spiro[2-benzofuran-1,4′-piperidin]-3-one]
9.3 | O=C1N=C(N2CCC3(CC2)OCc2ccccc23)S/C1=C1/CCCCc2ccccc21 [Example 47, (5Z)-2-(1′H,3H-spiro[2-benzofuran-1,4′-piperidin]-1′-yl)-5-(6,7,8,9-tetrahydro-5H-benzo[7]annulen-5-ylidene)-1,3-thiazol-4(5H)-one]
8.6 | C/C(=C1/SC(N2CCC3(CC2)OCc2ccccc23)=NC1=O)c1sc(C)nc1C [Example 112, (5E/Z)-5-[1-(2,4-dimethyl-1,3-thiazol-5-yl)ethylidene]-2-(1′H,3H-spiro[2-benzofuran-1,4′-piperidin]-1′-yl)-1,3-thiazol-4(5H)-one]
8.0 | O=C1N=C(N2CCC3(CC2)OCc2ccccc23)SC1=C1CCS(=O)(=O)CC1 [Example 60, 5-(1,1-dioxidotetrahydro-4H-thiopyran-4-ylidene)-2-(1′H,3H-spiro[2-benzofuran-1,4′-piperidin]-1′-yl)-1,3-thiazol-4(5H)-one]
7.6 | O=C1N=C(N2CCC3(CC2)OCc2ccccc23)SC1=C1CCC1 [Example 75, 5-cyclobutylidene-2-(1′H,3H-spiro[2-benzofuran-1,4′-piperidin]-1′-yl)-1,3-thiazol-4(5H)-one]
7.8 | CC(C)/C(=C1\SC(N2CCC3(CC2)OCc2ccccc23)=NC1=O)c1ccc(Cl)nc1 [Example 132, (5E)-5-[1-(6-chloropyridin-3-yl)-2-methylpropylidene]-2-(1′H,3H-spiro[2-benzofuran-1,4′-piperidin]-1′-yl)-1,3-thiazol-4(5H)-one]
6.8 | CC(C)/C(=C1\SC(N2CCC3(CC2)OC(=O)c2ccccc23)=NC1=O)c1ccc(Cl)nc1 [Example 148, 1′-{(5E)-5-[1-(6-chloropyridin-3-yl)-2-methylpropylidene]-4-oxo-4,5-dihydro-1,3-thiazol-2-yl}-3H-spiro[2-benzofuran-1,4′-piperidin]-3-one]
8.3 | C/C(=C1\SC(N2CCC3(CC2)OCc2ccccc23)=NC1=O)c1ccccc1F [Example 56, (5E)-5-[1-(2-fluorophenyl)ethylidene]-2-(1′H,3H-spiro[2-benzofuran-1,4′-piperidin]-1′-yl)-1,3-thiazol-4(5H)-one]
8.4 | O=C1N=C(N2CCC3(CC2)OCc2ccccc23)S/C1=C1/CCCc2cc(Cl)ccc21 [Example 11, (5E/Z)-5-(6-chloro-3,4-dihydronaphthalen-1(2H)-ylidene)-2-(1′H,3H-spiro[2-benzofuran-1,4′-piperidin]-1′-yl)-1,3-thiazol-4(5H)-one]
9.2 | CC/C(=C1/SC(N2CCC3(CC2)OCc2ccccc23)=NC1=O)c1ccc(Cl)nc1 [Example 133, (5Z)-5-[1-(6-chloropyridin-3-yl)propylidene]-2-(1′H,3H-spiro[2-benzofuran-1,4′-piperidin]-1′-yl)-1,3-thiazol-4(5H)-one]
8.3 | O=C1N=C(N2CCC3(CC2)OCc2ccccc23)S/C1=C1/CC2C3CC4C2C4C13 (stereo not drawn) [Example 55, (5E/Z)-5-[hexahydro-1,2,4-(methanetriyl)pentalen-5(1H)-ylidene]-2-(1′H,3H-spiro[2-benzofuran-1,4′-piperidin]-1′-yl)-1,3-thiazol-4(5H)-one]
8.9 | [2H]C([2H])([2H])/C(=C1\SC(N2CCC3(CC2)OCc2ccccc23)=NC1=O)c1ccc(Cl)nc1 [Example 172]

SMILES | pKi hV1a
C/C(CO[Si](C)(C)C(C)(C)C)=C1/SC(N2CCC3(CC2)OCc2ccccc23)=NC1=O [Example 59, (5Z)-5-(1-{[tert-butyl(dimethyl)silyl]oxy}propan-2-ylidene)-2-(1′H,3H-spiro[2-benzofuran-1,4′-piperidin]-1′-yl)-1,3-thiazol-4(5H)-one] | 6.5
